# Measured values reported in patent publication US20120195856A1, “Method of treating patients with cardiovascular illness” (priority 2011, published 2012).
# Where two headings read alike, the source gives them in different places.
# Experiments:
# [1] = Example 4: patient with ischemic heart disease, lipid and liver complexes after Zocor and then combination anti-viral therapy; format: in vivo, human; conditions: after six months of Zocor 20 mg/day, goal indicator 4.0
# [2] = Patient M.
# [3] = format: in vivo, human
# Text: Example 1. Patient, came to the clinic with a diagnosis of ischemic heart disease. Exertional angina, functional class III. Postinfarction cardiosclerosis (myocardial infarction in 1981). Atherosclerosis of the coronary arteries. Circulatory deficiency stage IIA. Cerebral atherosclerosis. Chronic cerebral impairment. Symptomatic hypertension. At arrival, complained of a squeezing pain in the area of the heart with radiation to the right hand, which arise both at rest and during physical activity (up to 4-5 times per day) and were relieved by taking nitroglycerin (up to 8 times per day), as well as shortness of breath while walking, vertigo, periodic headaches, ringing in the ears, irritability, and insomnia. The patient was prescribed treatment: anti-angina drugs (Nitrosorbidum 30 mg/day, Corinfar 30 mg/day; also has hypotensive activity), and Valacyclovir 2 tablets (1.0 g) three times a day. […] The atherogenesis index fell from 4.74 to 3.38, and there was an increase in cholesterol/HDL from 1.17 mmol/l to 1.20 mmol/l. During the treatment process, a slowing in the free-radical acidization of lipids was seen; the content of serum malondialdehyde fell from 0.50 mcmol/ml to 0.31 mcmol/ml, diethynoid conjugates fell from 1.332 mcmol/ml to 0.70 mcmol/ml, triethynoid conjugates declined from 0.23 mcmol/ml to 0.14 mcmol/ml; the a-tocopherol content recovered from 2.69 mcmol/ml to 4.32 mcmol/ml; the glutathione reductase activity went from 12.4 mcmol/l h to 22.0 mcmol/l h. On the electrocardiogram, a decrease in the T index from 35.0 to 0, in the SST from 11.0 to 0, and in the NST from 10.0 to 0 were seen. […] Angina pain and shortness of breath not present; nitroglycerine tablets not used. Vertigo and headaches had decreased.
# Thus in the process of treatment, in the patient who took Valacyclovir, lipidogram, peroxide acidization of lipids, electrocardiography, and tetrapolar rheography indicators normalized. Valacyclovir side effects were not observed.
# [4] = design: species or system human; conditions: in vivo
# Text: The use of the antiviral drug is not useful for a longer period, as the remission period begins for the patient and the drug is ineffective.
SMILES,total cholesterol [1],"total cholesterol ([2]; after six months of simvastatin 10 mg/day, goal indicator 5.0)","serum malondialdehyde content ([3]; after Valacyclovir 1.0 g three times a day + anti-angina drugs, before 0.50)","LDL in blood serum ([3]; after Valacyclovir 1.0 g three times a day + anti-angina drugs, before 1.55)","cholesterol/LDL in blood serum ([3]; after Valacyclovir 1.0 g three times a day + anti-angina drugs, before 3.99)","electrocardiogram NST ([3]; after Valacyclovir 1.0 g three times a day + anti-angina drugs, before 10.0)","electrocardiogram SST ([3]; after Valacyclovir 1.0 g three times a day + anti-angina drugs, before 11.0)","electrocardiogram T index ([3]; after Valacyclovir 1.0 g three times a day + anti-angina drugs, before 35.0)","side effects ([3]; human, in vivo)","lipidogram, peroxide acidization of lipids, electrocardiography, and tetrapolar rheography indicators ([3]; in the process of treatment, patient who took Valacyclovir)","vertigo and headaches ([3]; within seven weeks, Valacyclovir 1.0 g three times a day + anti-angina drugs)","use of nitroglycerine tablets ([3]; within seven weeks, before up to 8 times per day)",long-term remission of the illness or substantial positive stabilization of the patient's condition [4],"total cholesterol ([2]; after Valacyclovir 1.0 g 3×/day for 3 courses of 7 days, with standard treatment, goal value 5.0)"
CCC(C)(C)C(=O)O[C@H]1C[C@@H](C)C=C2C=C[C@H](C)[C@H](CC[C@@H]3C[C@@H](O)CC(=O)O3)[C@H]21 [simvastatin],3.9 mmol/L,4.9 mmol/L,–,–,–,–,–,–,–,–,–,–,–,–
CC(C)[C@H](N)C(=O)OCCOCn1cnc2c(=O)[nH]c(N)nc21 [Valacyclovir],–,–,0.31 mcmol/ml,0.47 mmol/L,3.68 mmol/L,0,0,0,not observed,normalized,decreased,not used,does not provide long-term remission,4.7 mmol/L
Nc1nc2c(ncn2COCCO)c(=O)[nH]1 [Acyclovir],–,–,–,–,–,–,–,–,–,–,–,–,does not provide long-term remission,–
